Results on nine molecules are retold here after PubChem BioAssay (NCI).

Test systems include COLO 205 colon; SNB-19 CNS; MOLT-4 leukemia; SF-539 CNS; A498 renal; NCI/ADR-RES ovarian; A549 NSCLC; PC-3 prostate; OVCAR-5 ovarian; EKVX NSCLC.
Common to all, as to test: inhibition of tumour cell growth, NCI panel, 48 h

The structures appear in SMILES notation. “And” between values parts separate entries of the source, which are not always exact repeats. Equal values may be shown once.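 Step 1: Grow cells in 96-well plates. Step 2: Expose to compound for 48 hours at 5 concentrations. Step 3: Interpolate endpoints linearly; if unreached, use highest concentration. At the GI50, growth is halved. At the TGI there is no net growth.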

As for `c1ccc([As]=[As]c2ccccc2)cc1` (stereo unspecified), the GI50 in the assay with COLO 205 colon is 1.13 µM; with SNB-19 CNS, 1.42 µM; with MOLT-4 leukemia it was 1.01 µM; in the assay with SF-539 CNS, 0.884 µM; in the assay on A498 renal it was 0.668 µM; in the assay with NCI/ADR-RES ovarian, 2.16 µM. Besides, the GI50 with A549 NSCLC was 1.87 µM; in the assay on PC-3 prostate it was 1.27 µM; in the assay on OVCAR-5 ovarian, 1.5 µM. Also, the TGI with COLO 205 colon was determined as 2.8 µM; in the assay on SNB-19 CNS, 2.8 µM; with MOLT-4 leukemia it was 4.17 µM; with SF-539 CNS, 2.36 µM; in the assay on A498 renal it was 2.34 µM; in the assay on NCI/ADR-RES ovarian, 6.32 µM. Besides, the TGI in the assay with A549 NSCLC was determined as 3.9 µM; in the assay on PC-3 prostate, 2.64 µM; in the assay with OVCAR-5 ovarian, 3.07 µM.

For `CN(C)c1ccc(C(c2ccc(Cl)cc2)c2ccc(N(C)C)cc2)cc1`, the TGI in the assay with COLO 205 colon, in the assay with SNB-19 CNS, with MOLT-4 leukemia, with EKVX NSCLC, with SF-539 CNS and in the assay on A498 renal was above 100 µM in each case. For the same molecule, the TGI in the assay on NCI/ADR-RES ovarian, with A549 NSCLC, in the assay on PC-3 prostate and with OVCAR-5 ovarian was above 100 µM each time.

`CNS(=O)(=O)OCC1OC(n2cnc3c(N)ncnc32)C(O)C1O` (stereo unspecified): the GI50 in the assay on COLO 205 colon, in the assay on SNB-19 CNS, in the assay with EKVX NSCLC, in the assay on SF-539 CNS, in the assay on A498 renal and in the assay with NCI/ADR-RES ovarian was above 100 µM in each case. In addition, the GI50 in the assay on A549 NSCLC, in the assay on PC-3 prostate and in the assay on OVCAR-5 ovarian was above 100 µM in each case. Further, the TGI with COLO 205 colon, with SNB-19 CNS, in the assay on EKVX NSCLC, in the assay on SF-539 CNS, in the assay with A498 renal and in the assay on NCI/ADR-RES ovarian was above 100 µM each time. Moreover, the TGI with A549 NSCLC, in the assay with PC-3 prostate and in the assay on OVCAR-5 ovarian was above 100 µM throughout.

For the molecule `COc1ccc(N(/C=C/C(=O)C(F)(F)F)CC(=O)c2ccc(Cl)cc2)cc1`, the GI50 with COLO 205 colon is 18.6 µM; in the assay on SNB-19 CNS it was 18.8 µM; in the assay with MOLT-4 leukemia, 15.4 µM; in the assay with EKVX NSCLC it was 25.3 µM; in the assay on SF-539 CNS it was 18.2 µM; in the assay on A498 renal, 13.9 µM. In addition, the GI50 in the assay on NCI/ADR-RES ovarian is 15.7 µM; in the assay with A549 NSCLC, 29.6 µM; with PC-3 prostate it was 14.2 µM; in the assay with OVCAR-5 ovarian it was 18.5 µM. Besides, the TGI with COLO 205 colon worked out at 40.7 µM; in the assay on SNB-19 CNS it was 47.1 µM; in the assay with MOLT-4 leukemia it was 55.5 µM; in the assay on EKVX NSCLC, 63.3 µM; in the assay on SF-539 CNS, 37 µM; in the assay on A498 renal, 28.7 µM. In addition, the TGI in the assay with NCI/ADR-RES ovarian came to 53.1 µM; in the assay with A549 NSCLC, 87.8 µM; in the assay with PC-3 prostate, 32.8 µM; in the assay with OVCAR-5 ovarian, 38.5 µM.

Turning to `CN1CCN(CCOc2cc(OC3CCOCC3)c3c(Nc4c(Cl)ccc5c4OCO5)ncnc3c2)CC1`, the GI50 with COLO 205 colon was 9.81 µM and 7.76 µM; in the assay with SNB-19 CNS, 12.1 µM and > 10 µM; with MOLT-4 leukemia, 14.6 µM and > 10 µM; in the assay with EKVX NSCLC it was 1.04 µM and 0.732 µM; in the assay on SF-539 CNS, 6.5 µM and 6.41 µM; in the assay with A498 renal, 0.529 µM and 1.37 µM. Moreover, the GI50 in the assay on NCI/ADR-RES ovarian was 10.6 µM and 8.91 µM; in the assay with A549 NSCLC, 5.27 µM and 3.26 µM; in the assay on PC-3 prostate, 19.3 µM and > 10 µM; in the assay on OVCAR-5 ovarian, 1.13 µM and 1.35 µM. Moreover, the TGI is 24 µM and > 10 µM in the assay on COLO 205 colon; above 100 µM in the assay on SNB-19 CNS; 49.2 µM and > 10 µM in the assay on MOLT-4 leukemia; 57.6 µM and > 10 µM in the assay with EKVX NSCLC; 21.1 µM and > 10 µM in the assay on SF-539 CNS; 4.52 µM and > 10 µM with A498 renal. Also, the TGI in the assay with NCI/ADR-RES ovarian was 56.8 µM and > 10 µM; with A549 NSCLC it was 25.9 µM and > 10 µM; in the assay on PC-3 prostate, above 100 µM; in the assay with OVCAR-5 ovarian, 23.9 µM and > 10 µM.

As to `O=c1oc2ccc(-c3ccc(F)cc3F)cc2c(=O)n1-c1ccc(Cl)c(C(F)(F)F)c1`, the GI50 in the assay on COLO 205 colon was 2.89 µM; with SNB-19 CNS it was 3.65 µM; in the assay on MOLT-4 leukemia it was 2.33 µM; with EKVX NSCLC, 2.18 µM; in the assay with SF-539 CNS, 2.54 µM; in the assay with A498 renal it was 0.656 µM. The GI50 was 2.49 µM with NCI/ADR-RES ovarian, 3.33 µM in the assay on A549 NSCLC, 2.95 µM in the assay with PC-3 prostate and 4.31 µM with OVCAR-5 ovarian. The TGI in the assay with COLO 205 colon is 8.54 µM; with SNB-19 CNS, above 100 µM; with MOLT-4 leukemia it was 5.45 µM; in the assay on EKVX NSCLC, 7.54 µM; with SF-539 CNS it was 7.09 µM; in the assay on A498 renal, 2.4 µM. The TGI in the assay on NCI/ADR-RES ovarian was 8.89 µM; with A549 NSCLC, above 100 µM; with PC-3 prostate, 35.8 µM; with OVCAR-5 ovarian, above 100 µM.

On to `CCN1C[C@]2(COC)[C@H](O)C[C@H](OC)[C@]34C1[C@H]([C@H](OC)[C@H]23)[C@]1(OC(C)=O)[C@H]2[C@@H](OC(=O)c3ccccc3)[C@](O)(C[C@H]24)[C@@H](OC)[C@@H]1O`, for which the TGI in the assay with COLO 205 colon, in the assay with SNB-19 CNS, in the assay with EKVX NSCLC, in the assay on SF-539 CNS, with A498 renal and with NCI/ADR-RES ovarian was above 100 µM each time. In addition, the TGI with A549 NSCLC, in the assay with PC-3 prostate and with OVCAR-5 ovarian was above 100 µM throughout.

`COc1ccc(C2C=C(c3ccc(Cl)cc3)N=C3SC=C(C)N32)c(Br)c1` (stereo unspecified): the GI50 is 3.54 µM in the assay on COLO 205 colon; 5.25 µM in the assay on SNB-19 CNS; 4.12 µM with MOLT-4 leukemia; 2.15 µM in the assay with SF-539 CNS; 4.18 µM in the assay with A498 renal; 4.22 µM with NCI/ADR-RES ovarian. The GI50 in the assay with A549 NSCLC is 3 µM; with PC-3 prostate it was 4.67 µM; with OVCAR-5 ovarian, 3.12 µM. For the same molecule, the TGI in the assay with COLO 205 colon is 10.3 µM; with SNB-19 CNS it was 21.7 µM; in the assay with MOLT-4 leukemia, above 100 µM; in the assay with SF-539 CNS, 5.37 µM; in the assay with A498 renal it was 16.2 µM; in the assay with NCI/ADR-RES ovarian, above 100 µM. In addition, the results for the TGI in the assay on A549 NSCLC, in the assay with PC-3 prostate and in the assay with OVCAR-5 ovarian were 24.7 µM, 43.3 µM and 11.2 µM, respectively.

As for `O=C(Nc1ccccc1O)c1ccc(NS(=O)(=O)c2cccc3cccnc23)cc1`, the GI50 is 1.06 µM in the assay on COLO 205 colon; 2.89 µM in the assay with SNB-19 CNS; 1.21 µM with MOLT-4 leukemia; 0.76 µM in the assay on SF-539 CNS; 0.208 µM in the assay on A498 renal; 0.788 µM in the assay with NCI/ADR-RES ovarian. Besides, the figures for the GI50 in the assay with A549 NSCLC, in the assay on PC-3 prostate and with OVCAR-5 ovarian were 2.03 µM, 1.46 µM and 0.744 µM, respectively. Also, the TGI was 4.01 µM with COLO 205 colon; above 14.8 µM in the assay with SNB-19 CNS; above 25 µM in the assay with MOLT-4 leukemia; 10.1 µM in the assay with SF-539 CNS; 1.62 µM with A498 renal; 5.96 µM in the assay on NCI/ADR-RES ovarian. Moreover, the TGI is 9.02 µM in the assay with A549 NSCLC, 8.25 µM in the assay with PC-3 prostate and above 12.7 µM in the assay on OVCAR-5 ovarian.
